The text below walks through data of patent publication US9642851B2, “Indolinone derivative as tyrosine kinase inhibitor” (KBP Biosciences Co., Ltd., priority 2012, dated 2017).

Molecules are shown by their SMILES. Counter-ions that a name gives are not always drawn.

One assay relates to HUVEC cells. Nature of the assay: In vitro cellular inhibitory activity, h-VEGF-A stimulated HUVEC proliferation. The assay is classed as cell-based. As to conditions: Homo sapiens, h-VEGF-A 10 ng/ml, incubated for 89 hours, absorbance at 490 nm, read-out: ED50 for the HUVEC in vitro cells. How it is done:
(§1) (1) Thawing cells and Passing cells.
(§2) The 3T3 cells were resuspended in a culture medium containing 10% fetal bovine serum, wherein the cell concentration was 5×10^4/ml. The cell suspension was added to a 96-well plate with 100 μL per well, and incubated overnight; the HUVEC cells were resuspended in a culture medium containing 10% heat-inactivated fetal bovine serum, wherein the cell concentration was 7.5×10^4/ml. The cell suspension was added to a 96-well plate with 100 μL per well. • (3) Treating with drugs: the compounds were diluted to different concentrations, and 60 μLh-PDGF-BB (3T3 cells) and 40 ng/ml h-VEGF-A (HUVEC cells) were added and incubated for 1 hour. • (4) 100 μL of a solution containing the compound and h-PDGF-BB (h-VEGF-A, for the HUVEC cells) was added to a cell culture plate, wherein the final concentration of h-PDGF-BB was 10 ng/ml, the final concentration of h-VEGF-A was 10 ng/ml, and the final concentration for the compounds were 10, 3.3333, 1.1111, 0.3704, 0.1235, 0.0412, 0.0137, 0.0046, and 0.0015 μM. The plate was incubated for 40 hours, and the HUVEC cells were incubated for 89 hours. To each well was added 20 μL Promega Substrate, and the plate was incubated at 37° C. for 7.5 hours, and the HUVEC cells were incubated for 11.5 hours. Then the plate was placed in a microplate reader to read the absorbance at 490 nm. • (5) Data processing
(§3) The curve of the compound concentration vs. Net OD was plotted, wherein Net OD=Compound OD−min. OD. ED50 was calculated according to the following equation: Conc. ED50(x)=(y−b)/a, y=Calculated Net OD for IC50, a=slope, b=intercept.

In a further assay the test system is 3T3 cells. In words: In vitro cellular inhibitory activity, h-PDGF-BB stimulated 3T3 proliferation. As to conditions: Mus musculus, NIH3T3; h-PDGF-BB 10 ng/ml, incubated for 40 hours, absorbance at 490 nm; read-out: ED50 for the 3T3 in vitro cells. The assay is classed as cell-based. The procedure: as §1, §2, §3
A further assay addresses T1, VEGFR2 (Homo sapiens, UniProt P35968).
T1 construct: purchased Carna
Nature of the assay: In vitro enzymology inhibitory activity (Caliper mobility shift kinase assay). The assay is classed as biochemical. The settings on record: reaction 1 hour at 28° C., FAM-labelled peptide and ATP. How it is done:
(§4) • (1) Preparation of agents and compounds • (1) 1-fold kinase buffer without MnCl2 (50 mM HEPES, pH=7.5, 0.0015% Brij-35, 10 mM MgCl2, 2 mM DTT) • (2) 1-fold kinase buffer with MnCl2 (50 mM HEPES, pH=7.5, 0.0015% Brij-35, 10 mM MgCl2, 10 mM MnCl2, 2 mM DTT); • (3) Termination solution (100 mM HEPES, pH=7.5, 0.015% Brij-35, 0.2% Coating Reagent #3, 50 mM EDTA); • (4) 2.5-fold kinase solution (the VEGFR2, FGFR1, FGFR3, PDGFRβ kinases were added to the 1-fold kinase buffer respectively to prepare the corresponding 2.5-fold kinase solutions); • (5) 2.5-fold substrate solution: FAM-labelled peptide and ATP were added to the 1-fold kinase buffer to prepare a peptide solution; • (6) 4-fold dilution of the compound solution: the compound was accurately weighed, and dissolved in DMSO. The mixture was mixed sufficiently and evenly to prepare a 10 mM solution. Then the solution was diluted with DMSO to 500 μM, and 4-fold serial dilutions were done at 10 concentrations with a highest concentration of 50μM.
(§5) The calculated inhibition ratio (%)=(max. conversion−sample conversion)/(max. conversion−min. conversion)×100
(§6) The curve fitting was done with the software Xlfit to obtain the IC50 value.

Another assay addresses T2, FGFR1 (Homo sapiens, UniProt P11362).
T2 construct: purchased Carna
The description is as above. The assay is classed as biochemical. The settings on record: reaction 1 hour at 28° C., FAM-labelled peptide and ATP. The procedure:
as §4, §5, §6

The next assay addresses T3, PDGFRβ (Homo sapiens, UniProt P09619).
T3 construct: purchased BPS
The assay is described as above. The assay is classed as biochemical. As to conditions: reaction 5 hour at 28° C., FAM-labelled peptide and ATP. How it is done:
as §4, §5, §6

A further assay has as its target T4, FGFR3 (Homo sapiens, UniProt P22607).
T4 construct: purchased Carna
The description is as above. The class given is biochemical. The settings on record: reaction 1 hour at 28° C., FAM-labelled peptide and ATP. The procedure:
as §4, §5, §6

T3 sequence (P09619 33-1106): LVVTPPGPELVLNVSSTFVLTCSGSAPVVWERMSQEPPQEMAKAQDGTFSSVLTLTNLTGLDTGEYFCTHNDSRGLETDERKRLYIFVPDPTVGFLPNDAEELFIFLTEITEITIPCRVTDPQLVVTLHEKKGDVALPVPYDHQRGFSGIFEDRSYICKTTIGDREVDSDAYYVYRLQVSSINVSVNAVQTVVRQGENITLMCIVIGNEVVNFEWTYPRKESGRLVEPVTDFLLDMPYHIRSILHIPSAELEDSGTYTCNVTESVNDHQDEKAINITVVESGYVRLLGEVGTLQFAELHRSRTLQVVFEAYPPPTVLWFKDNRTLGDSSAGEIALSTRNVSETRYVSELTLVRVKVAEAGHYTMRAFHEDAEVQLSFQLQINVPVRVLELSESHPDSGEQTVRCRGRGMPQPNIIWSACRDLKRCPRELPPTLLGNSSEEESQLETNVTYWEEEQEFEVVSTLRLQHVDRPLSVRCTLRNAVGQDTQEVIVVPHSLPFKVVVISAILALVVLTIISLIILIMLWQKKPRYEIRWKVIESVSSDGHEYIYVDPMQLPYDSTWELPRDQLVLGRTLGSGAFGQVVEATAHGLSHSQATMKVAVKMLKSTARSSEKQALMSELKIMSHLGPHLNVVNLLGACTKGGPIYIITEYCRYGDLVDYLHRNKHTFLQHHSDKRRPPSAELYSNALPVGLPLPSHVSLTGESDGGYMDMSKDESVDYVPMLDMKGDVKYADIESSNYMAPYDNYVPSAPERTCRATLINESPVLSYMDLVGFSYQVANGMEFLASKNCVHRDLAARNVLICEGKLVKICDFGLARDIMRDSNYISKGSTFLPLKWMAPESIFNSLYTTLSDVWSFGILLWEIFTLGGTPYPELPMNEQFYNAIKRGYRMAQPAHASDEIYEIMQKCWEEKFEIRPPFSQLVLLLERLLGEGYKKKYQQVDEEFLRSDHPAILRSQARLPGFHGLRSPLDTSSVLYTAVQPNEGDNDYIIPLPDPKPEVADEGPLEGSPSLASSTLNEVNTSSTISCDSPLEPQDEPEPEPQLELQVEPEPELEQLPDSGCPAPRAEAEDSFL
T4 sequence (P22607 23-806): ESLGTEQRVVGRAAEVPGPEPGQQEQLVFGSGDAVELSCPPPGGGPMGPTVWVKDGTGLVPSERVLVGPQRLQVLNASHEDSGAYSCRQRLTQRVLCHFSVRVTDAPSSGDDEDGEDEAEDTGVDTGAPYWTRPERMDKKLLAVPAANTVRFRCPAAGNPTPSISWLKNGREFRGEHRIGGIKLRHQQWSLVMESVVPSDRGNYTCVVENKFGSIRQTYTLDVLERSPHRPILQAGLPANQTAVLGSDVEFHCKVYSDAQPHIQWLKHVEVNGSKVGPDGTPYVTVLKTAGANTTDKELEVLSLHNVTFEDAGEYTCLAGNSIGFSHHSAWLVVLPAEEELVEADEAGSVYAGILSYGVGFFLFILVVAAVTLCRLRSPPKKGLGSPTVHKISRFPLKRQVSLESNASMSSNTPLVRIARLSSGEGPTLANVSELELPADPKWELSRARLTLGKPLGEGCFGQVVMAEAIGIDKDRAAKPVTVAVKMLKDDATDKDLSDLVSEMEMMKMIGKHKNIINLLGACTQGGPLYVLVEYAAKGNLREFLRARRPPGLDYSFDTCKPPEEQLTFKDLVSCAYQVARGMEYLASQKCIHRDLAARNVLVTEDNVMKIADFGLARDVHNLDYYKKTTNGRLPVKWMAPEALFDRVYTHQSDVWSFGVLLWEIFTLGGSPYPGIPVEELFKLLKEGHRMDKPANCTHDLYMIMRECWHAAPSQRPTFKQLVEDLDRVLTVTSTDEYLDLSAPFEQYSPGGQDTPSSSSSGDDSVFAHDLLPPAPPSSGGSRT
T1 sequence (P35968 20-1356): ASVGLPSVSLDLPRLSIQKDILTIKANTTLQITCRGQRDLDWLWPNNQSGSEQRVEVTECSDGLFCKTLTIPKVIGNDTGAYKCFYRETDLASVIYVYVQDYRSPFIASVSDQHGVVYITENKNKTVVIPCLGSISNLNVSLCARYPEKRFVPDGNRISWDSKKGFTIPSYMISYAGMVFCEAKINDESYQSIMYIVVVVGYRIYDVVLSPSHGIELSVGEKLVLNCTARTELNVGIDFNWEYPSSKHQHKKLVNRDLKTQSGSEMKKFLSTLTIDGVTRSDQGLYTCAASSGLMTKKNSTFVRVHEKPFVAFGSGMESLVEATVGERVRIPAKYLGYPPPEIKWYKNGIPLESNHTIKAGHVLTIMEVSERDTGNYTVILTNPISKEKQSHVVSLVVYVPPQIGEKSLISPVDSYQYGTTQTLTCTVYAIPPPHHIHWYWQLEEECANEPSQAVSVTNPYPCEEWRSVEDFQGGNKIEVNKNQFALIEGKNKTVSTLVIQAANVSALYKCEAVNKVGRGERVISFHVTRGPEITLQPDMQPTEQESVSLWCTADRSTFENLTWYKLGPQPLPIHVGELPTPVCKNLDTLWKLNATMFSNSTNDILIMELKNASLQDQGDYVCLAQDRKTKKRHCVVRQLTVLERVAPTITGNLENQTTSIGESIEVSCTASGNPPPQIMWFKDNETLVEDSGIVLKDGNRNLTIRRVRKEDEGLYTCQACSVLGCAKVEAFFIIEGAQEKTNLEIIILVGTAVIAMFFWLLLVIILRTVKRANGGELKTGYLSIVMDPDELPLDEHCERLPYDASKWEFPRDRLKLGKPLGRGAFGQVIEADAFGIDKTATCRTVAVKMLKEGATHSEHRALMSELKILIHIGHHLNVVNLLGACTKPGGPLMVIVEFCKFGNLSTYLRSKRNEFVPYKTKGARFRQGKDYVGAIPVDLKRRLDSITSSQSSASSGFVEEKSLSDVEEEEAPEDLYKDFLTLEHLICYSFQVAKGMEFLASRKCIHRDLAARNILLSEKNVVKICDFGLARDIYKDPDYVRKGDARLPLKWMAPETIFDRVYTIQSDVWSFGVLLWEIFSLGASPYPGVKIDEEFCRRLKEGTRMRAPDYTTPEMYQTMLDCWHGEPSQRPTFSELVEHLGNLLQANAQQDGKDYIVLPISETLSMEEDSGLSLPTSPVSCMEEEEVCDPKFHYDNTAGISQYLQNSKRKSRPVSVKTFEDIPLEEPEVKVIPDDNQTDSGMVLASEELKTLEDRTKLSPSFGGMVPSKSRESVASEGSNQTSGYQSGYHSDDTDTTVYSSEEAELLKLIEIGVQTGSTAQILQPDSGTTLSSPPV
T2 sequence (P11362 22-822): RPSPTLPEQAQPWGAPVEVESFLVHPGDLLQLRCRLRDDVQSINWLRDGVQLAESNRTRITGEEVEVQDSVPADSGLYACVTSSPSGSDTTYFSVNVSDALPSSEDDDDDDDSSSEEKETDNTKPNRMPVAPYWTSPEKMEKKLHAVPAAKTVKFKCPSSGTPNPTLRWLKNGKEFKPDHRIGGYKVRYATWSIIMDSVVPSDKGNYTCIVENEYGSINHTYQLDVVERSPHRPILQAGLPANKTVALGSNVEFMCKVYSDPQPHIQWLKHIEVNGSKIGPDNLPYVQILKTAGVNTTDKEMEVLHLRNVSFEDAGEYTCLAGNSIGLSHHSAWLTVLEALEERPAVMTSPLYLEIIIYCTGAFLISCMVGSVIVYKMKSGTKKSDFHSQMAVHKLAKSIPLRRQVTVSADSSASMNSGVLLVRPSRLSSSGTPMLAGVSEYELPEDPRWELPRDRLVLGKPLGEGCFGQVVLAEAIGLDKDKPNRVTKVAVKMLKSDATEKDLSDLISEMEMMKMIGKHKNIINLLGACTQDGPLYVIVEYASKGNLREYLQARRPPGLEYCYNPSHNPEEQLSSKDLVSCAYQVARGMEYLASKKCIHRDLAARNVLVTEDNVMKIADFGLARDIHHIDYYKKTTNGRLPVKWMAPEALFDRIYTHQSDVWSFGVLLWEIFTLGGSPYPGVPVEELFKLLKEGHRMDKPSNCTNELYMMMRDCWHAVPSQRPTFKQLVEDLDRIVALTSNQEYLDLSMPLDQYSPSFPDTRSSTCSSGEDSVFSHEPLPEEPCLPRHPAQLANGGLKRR

Consider `COC(=O)c1ccc2c(c1)NC(=O)/C2=C(\Nc1ccc2c(c1)CCN2C(=O)CN1CCN(C)CC1)c1ccccc1` [Compound 1], for which the EC50 in the assay with HUVEC cells lay in the range of 56 to 84 nM; in the assay with 3T3 cells, 60 to 80 nM. Further, the IC50 at VEGFR2 turned out to be 17 nM; on FGFR1, 100 nM; at PDGFRβ, 7.6 nM; on FGFR3, 230 nM.

In the case of `COC(=O)c1ccc2c(c1)NC(=O)/C2=C(\Nc1ccc2c(c1)CCN2C(=O)CN1CCOCC1)c1ccc(F)cc1` [Compound 9 hydrochloride, methyl(Z)-3-((4-fluorophenyl)(1-(2-morpholinylacetyl)indolin-5-ylamino)methylene)-2-oxoindoline-6-carboxylate], the EC50 in the assay on HUVEC cells lay in the range of 130 to 190 nM. Also, the half-maximal inhibitory concentration (IC50) on VEGFR2 was 770 nM; on PDGFRβ it was 85 nM; at FGFR3, 9800 nM.

With `CCOC(=O)c1ccc2c(c1)NC(=O)/C2=C(\Nc1ccc2c(c1)CCN2C(=O)CN1CCOCC1)c1ccccc1` [Compound 10 hydrochloride, ethyl(Z)-3-((1-(2-morpholinylacetyl)indolin-5-ylamino)(phenyl)methylene)-2-oxoindoline-6-carboxylate], in the assay with HUVEC cells, the EC50 was 90 to 140 nM. Further, the concentration for half-maximal inhibition (IC50) is 630 nM at VEGFR2, 7960 nM at FGFR1, 65 nM on PDGFRβ and 5300 nM at FGFR3.

On to `COC(=O)c1ccc2c(c1)NC(=O)/C2=C(\Nc1ccc2c(c1)CCN2C(=O)Cn1cncn1)c1ccccc1` [Compound 13 hydrochloride, methyl(Z)-3-((1-(2-(1H-1,2,4-triazol-1-yl)acetyl)indolin-5-ylamino)(phenyl)methylene)-2-oxoindoline-6-carboxylate], for which, in the assay on HUVEC cells, the EC50 fell in the range of 60 to 90 nM. In addition, the IC50 at FGFR1 is 700 nM; on PDGFRβ it was 14 nM; on FGFR3, 540 nM.
